Legend:
L1210 (1565) [1] = assay: Compound was evaluated for cytotoxicity against L-1210 cells, and concentration required to inhibit the growth of treated cells to 50% of untreated control.; type: functional, cell-based; settings: Mus musculus
L1210 (1565) [2] = assay: (§1) Compound was evaluated for cytotoxicity against L-1210 (AK-) cells, and concentration required to inhibit the growth of treated cells to 50% of untreated control.; type: functional, cell-based; settings: Mus musculus
HEp-2 [3] = assay: Compound was evaluated for cytotoxicity against H.Ep.-2 cells, and concentration required to inhibit the growth of treated cells to 50% of untreated control.; type: functional, cell-based; settings: Homo sapiens
[4] = test system: S-adenosyl-L-homocysteinase (Mus musculus); assay: Inhibition of S-adenosyl-L-homocysteinase from L-1210 cells
HEp-2 [5] = assay: Compound was evaluated for cytotoxicity against H.Ep.-2 cells and concentration required to inhibit the growth of treated cells to 50% of untreated control was reported; type: functional, cell-based; settings: Homo sapiens
L1210 (1565) [6] = assay: as §1; type: functional, cell-based; settings: Mus musculus; remark: listed apart in the source
HEp-2 [7] = assay: Compound was evaluated for cytotoxicity against H.Ep.-2 (AK-) cells and concentration required to inhibit the growth of treated cells to 50% of untreated control; type: functional, cell-based; settings: Homo sapiens

For `Nc1ncnc2c1ccn2[C@@H]1C[C@H](CO)[C@H](O)C1O` (stereo not given in full), the IC50 (L1210 (1565) [1]) was 4 µM, the IC50 (L1210 (1565) [2]) was > 40 µM and the IC50 (HEp-2 [3]) was 1.4 µM. For the same compound, the Ki [4] was 44 µM.

`Nc1nccc2c1ncn2[C@@H]1O[C@H](CO)[C@@H](O)[C@H]1O` showed an IC50 (HEp-2 [3]) of 20 µM.

`Nc1[nH]ccc2ncnc1-2` gave an IC50 (HEp-2 [5]) of 7 µM.

With `Nc1ncnc2[nH]ccc12` the IC50 (HEp-2 [3]) was > 70 µM.

`Nc1nccc2c1ncn2[C@@H]1C[C@H](CO)[C@H](O)C1O` (stereo not given in full) showed an IC50 (L1210 (1565) [1]) of 4 µM, an IC50 (L1210 (1565) [2]) of 1 µM and an IC50 (HEp-2 [3]) of 0.6 µM. The IC50 (L1210 (1565) [6]) was 1 µM.

With `Nc1ncnc2c1ncn2[C@@H]1O[C@H](CO)[C@@H](O)[C@H]1O` [ADENOSINE] the IC50 (HEp-2 [7]) was 20 µM and the IC50 (HEp-2 [3]) was 0.7 µM.

`Nc1ncnc2c1ccn2[C@@H]1O[C@H](CO)[C@@H](O)[C@H]1O` [TUBERCIDIN] was tested, and the IC50 (HEp-2 [7]) was > 3 µM and the IC50 (HEp-2 [3]) was 0.002 µM.

— ChEMBL document CHEMBL1122762, “(+/-)-3-(4-Amino-1H-pyrrolo[2,3-d]pyrimidin-1-yl)-5-(hydroxymethyl)- (1 alpha,2 alpha,3 beta,5 beta)-1,2-cyclopentanediol, the carbocyclic analogue of tubercidin” (J Med Chem, 1984)
